Where “and” joins values, the source holds several entries; their conditions need not be identical. Equal values may be shown once.
How the values were obtained:
Conditions in all cases: displacement of [3H]-NMS, membranes from transfected CHO cells; separate determinations in one cell
[1] = biological target: T1, human muscarinic receptor subtype M1 (Hm1) (Homo sapiens, UniProt P11229); experiment: [3H]-NMS receptor binding in CHO cell membranes, Hm1
T1 sequence (P11229 1-460): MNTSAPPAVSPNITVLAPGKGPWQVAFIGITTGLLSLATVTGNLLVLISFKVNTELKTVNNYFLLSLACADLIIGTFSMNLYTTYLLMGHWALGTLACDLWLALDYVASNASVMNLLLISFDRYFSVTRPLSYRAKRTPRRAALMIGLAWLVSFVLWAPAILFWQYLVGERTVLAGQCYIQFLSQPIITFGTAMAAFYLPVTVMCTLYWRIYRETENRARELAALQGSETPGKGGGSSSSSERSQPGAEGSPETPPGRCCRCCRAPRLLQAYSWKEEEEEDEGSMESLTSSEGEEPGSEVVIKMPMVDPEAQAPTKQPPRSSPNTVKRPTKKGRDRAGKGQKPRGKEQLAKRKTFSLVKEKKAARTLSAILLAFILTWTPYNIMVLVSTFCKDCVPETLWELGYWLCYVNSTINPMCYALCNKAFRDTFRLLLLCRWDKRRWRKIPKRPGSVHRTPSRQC
Experimental: (§1) The compounds of Formula I have shown potent binding affinity for muscarinic receptors and are thus useful as muscarinicing antagonists. […] The compounds are evaluated in standard assays used to measure muscarinic receptor binding. Specifically, the compounds are evaluated for their binding affinity toward five human muscarinic receptor subtypes (M1-M5) by the method of Dorje et al., J. Pharm. Exp. Ther., 1991;256:727-733, incorporated herein by reference. The binding is determined by measuring the displacement of [^3H]-NMS binding using membranes from transfected Chinese hamster ovary (CHO) cells. All compounds are tested two to four times with duplicate tubes (SEM is ≦10% in all cases).

[2] = biological target: T2, human muscarinic receptor subtype M2 (Hm2) (Homo sapiens, UniProt P08172); experiment: [3H]-NMS receptor binding in CHO cell membranes, Hm2
T2 sequence (P08172 1-466): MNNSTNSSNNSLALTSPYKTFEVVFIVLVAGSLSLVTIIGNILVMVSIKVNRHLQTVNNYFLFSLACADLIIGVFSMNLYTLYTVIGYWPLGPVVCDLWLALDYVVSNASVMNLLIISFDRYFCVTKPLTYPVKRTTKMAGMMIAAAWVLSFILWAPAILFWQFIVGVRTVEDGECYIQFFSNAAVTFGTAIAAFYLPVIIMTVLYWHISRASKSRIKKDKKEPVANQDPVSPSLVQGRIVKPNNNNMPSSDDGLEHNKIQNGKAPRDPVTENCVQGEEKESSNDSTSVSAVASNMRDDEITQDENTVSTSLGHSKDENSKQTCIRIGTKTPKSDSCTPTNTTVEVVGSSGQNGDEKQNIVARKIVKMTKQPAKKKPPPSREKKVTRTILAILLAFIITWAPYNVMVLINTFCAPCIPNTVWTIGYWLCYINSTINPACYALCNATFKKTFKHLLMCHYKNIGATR
Experimental: as §1

[3] = biological target: human muscarinic receptor subtype M3 (Hm3) (Homo sapiens, UniProt P20309); experiment: [3H]-NMS receptor binding in CHO cell membranes, Hm3
Chain of human muscarinic receptor subtype M3 (Hm3) (P20309 whole entry): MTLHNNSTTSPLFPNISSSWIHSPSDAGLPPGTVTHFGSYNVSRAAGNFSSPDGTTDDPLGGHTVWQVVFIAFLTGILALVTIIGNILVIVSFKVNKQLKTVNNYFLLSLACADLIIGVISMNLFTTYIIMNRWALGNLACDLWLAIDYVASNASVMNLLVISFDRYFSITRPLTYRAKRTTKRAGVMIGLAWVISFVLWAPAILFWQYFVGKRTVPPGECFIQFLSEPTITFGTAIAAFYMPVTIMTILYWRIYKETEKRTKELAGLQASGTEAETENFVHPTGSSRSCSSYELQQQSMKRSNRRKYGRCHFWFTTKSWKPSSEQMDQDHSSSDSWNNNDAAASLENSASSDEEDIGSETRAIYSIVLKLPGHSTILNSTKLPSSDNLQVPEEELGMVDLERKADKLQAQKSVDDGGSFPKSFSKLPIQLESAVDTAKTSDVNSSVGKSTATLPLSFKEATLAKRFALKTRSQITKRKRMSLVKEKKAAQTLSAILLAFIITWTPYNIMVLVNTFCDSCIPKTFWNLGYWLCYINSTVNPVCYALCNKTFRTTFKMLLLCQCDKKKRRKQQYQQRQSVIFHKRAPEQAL
Experimental: as §1

[4] = biological target: T3, human muscarinic receptor subtype M4 (Hm4) (Homo sapiens, UniProt P08173); experiment: [3H]-NMS receptor binding in CHO cell membranes, Hm4
T3 sequence (P08173 1-479): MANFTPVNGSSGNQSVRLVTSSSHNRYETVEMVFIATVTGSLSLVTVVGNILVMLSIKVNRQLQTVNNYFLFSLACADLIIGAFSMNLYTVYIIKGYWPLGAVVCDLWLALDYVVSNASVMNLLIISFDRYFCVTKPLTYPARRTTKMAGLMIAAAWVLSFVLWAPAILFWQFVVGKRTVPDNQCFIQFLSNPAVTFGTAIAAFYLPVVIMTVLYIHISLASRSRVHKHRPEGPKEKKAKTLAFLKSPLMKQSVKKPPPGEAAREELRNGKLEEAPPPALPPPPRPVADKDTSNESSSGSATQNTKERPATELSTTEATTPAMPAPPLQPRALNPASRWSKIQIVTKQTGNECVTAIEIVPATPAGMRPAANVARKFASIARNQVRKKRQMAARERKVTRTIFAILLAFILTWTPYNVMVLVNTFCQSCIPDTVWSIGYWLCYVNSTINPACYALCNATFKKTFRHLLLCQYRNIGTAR
Experimental: as §1

[5] = biological target: T4, human muscarinic receptor subtype M5 (Hm5) (Homo sapiens, UniProt P08912); experiment: [3H]-NMS receptor binding in CHO cell membranes, Hm5
T4 sequence (P08912 1-532): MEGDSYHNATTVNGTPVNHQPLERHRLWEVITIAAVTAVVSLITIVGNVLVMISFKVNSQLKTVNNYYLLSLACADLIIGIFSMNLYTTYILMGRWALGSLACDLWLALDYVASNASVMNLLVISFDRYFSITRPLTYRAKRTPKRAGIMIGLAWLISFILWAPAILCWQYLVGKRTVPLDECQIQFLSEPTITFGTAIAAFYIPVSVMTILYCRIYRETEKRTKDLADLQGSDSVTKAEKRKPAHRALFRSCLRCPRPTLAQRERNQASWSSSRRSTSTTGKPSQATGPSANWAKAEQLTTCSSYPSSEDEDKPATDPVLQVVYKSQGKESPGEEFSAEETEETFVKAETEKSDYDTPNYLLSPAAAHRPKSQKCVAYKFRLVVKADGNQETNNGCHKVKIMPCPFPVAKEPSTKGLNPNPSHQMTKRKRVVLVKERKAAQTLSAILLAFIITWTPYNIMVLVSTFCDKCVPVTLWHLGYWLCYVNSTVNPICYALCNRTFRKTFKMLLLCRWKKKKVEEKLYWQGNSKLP
Experimental: as §1

SMILES	IC50 [1]	IC50 [2]	IC50 [3]	IC50 [4]	IC50 [5]
CCCc1[nH]c2cc(Br)c3c(c2c1C(=O)OCC)CN1CCc2cc(OC)ccc2C1C3 (stereo not shown) [Compound 2, 5-Bromo-9-methoxy-2-propyl-6,11,12,13-tetrahydro-3H6aH-3,12a-diaza-benzo[a]cyclopent[h]anthracene-1-carboxylic acid ethyl ester]	0.5 µM and 0.4 µM	0.8 µM and 4 µM	> 10 µM	2 µM and 3 µM	10 µM and 15 µM
CCOC(=O)c1c(C)[nH]c2ccc3c(c12)CN1CCc2cc(OC)ccc2C1C3 (stereo not shown) [Compound 3, 9-methoxy-2-methyl-6,11,12,13-tetrahydro-3H,6aH-3,12a-diaza-benzo[a]cyclopent[h]anthracene-1-carboxylic acid ethyl ester]	> 10 µM and 25 µM	25 µM	> 10 µM and 5 µM	> 10 µM and 20 µM	10 µM and 9 µM
CCCc1[nH]c2ccc3c(c2c1C(=O)OCC)CN1CCc2cc(OC)ccc2C1C3 (stereo not shown) [Compound 4, 9-Methoxy-2-propyl-6,11,12,13-tetrahydro-3H6aH-3,12a-diaza-benzo[a]cyclopent[h]anthracene-1-carboxylic acid ethyl ester]	> 10 µM	20 µM and 15 µM	> 10 µM	> 10 µM	–
CCOC(=O)c1c(C)[nH]c2cc(Br)c3c(c12)CN1CCc2cc(OC)ccc2C1C3 (stereo not shown) [Compound 1, 5-Bromo-9-methoxy-2-methyl-6,11,12,13-tetrahydro-3H,6aH-3,12a-diaza-benzo[a]cyclopent[h]anthracene-1-carboxylic acid ethyl ester]	0.4 µM	3 µM	> 10 µM and 20 µM	3 µM and 0.6 µM	5 µM and 4 µM
